Values of other authors, collected in patent US12642772B2, “Triptolide formulations” (MINNEAMRITA THERAPEUTICS LLC, priority 2024, dated 2026).

solubility in water: approximately 0.017 mg/mL
Compound: CC(C)[C@]12O[C@H]1[C@@H]1O[C@]13[C@]1(O[C@H]1C[C@H]1C4=C(CC[C@@]13C)C(=O)OC4)[C@@H]2O [triptolide, Triptolide]
